According to US20220030866A1, “CONJUGATES OF AUXIN ANALOGS” (The State of Israel, Ministry of Agriculture & Rural …, priority 2019, published 2022):
Marks after values point to notes of the source that are not given here.

Assays:
Format in all cases: in vivo
[1] = test system: argan (Argania spinosa) cuttings; experiment: rooting of argan cuttings; conditions: in vivo
Procedure: The ability of exemplary conjugates to promote rooting in plants which are recalcitrant to rooting (in addition to the results obtained with Eucalyptus grandis in Example 3) was examined using cuttings of argan (Argania spinosa) and jojoba (Simmondsia chinensis) in a commercial nursery (Shorashim). The argan and jojoba cuttings were treated with 100 μM of a conjugate (any of Compounds 10-1t) with 6000 ppm IBA. The common treatment T-8 (talc with 8000 ppm IBA and a fungicide) or 6000 ppm IBA (without conjugate) served as a control.
(§1) Exemplary conjugates were also tested for rooting the hard-to-root species of avocado (VC801 rootstock) and argan, according to procedures described hereinabove.

[2] = test system: avocado rootstock cuttings; experiment: rooting of avocado rootstock cuttings; conditions: VC801 rootstock
From the text: Avocado rootstock is extremely difficult to root. Currently, the common technique for propagating clones of avocado rootstock is to graft the desired rootstock on a seedling, and transfer to the dark to generate an etiolated branch. This branch can be rooted and grafted with the desired variety while still grafted on the seed [Frolich & Platt, California Avocado Society 1971-72 Yearbook 1972, 55:97-109]. However, the preparation of such twice-grafted seedlings is time-consuming and expensive.
The ability of exemplary conjugates to promote rooting in green avocado cuttings (in the presence of IBA) was therefore examined. In particular, Compounds 2h (MCPA-methanol), 4b (NAA-β-alanine methyl ester), 3g (2-DP-methyl-4-aminobenzoate), 3f (2-DP-p-toluidine), 1l (4-CPA-morpholine) and is (4-CPA-D-Trp) were tested.
as §1

[3] = test system: cuttings from mature Eucalyptus grandis trees; experiment: rooting of cuttings from mature Eucalyptus grandis trees; conditions: for root number compared to IBA control, in words: Example 12: 6000 ppm IBA and 50 μM conjugate dip plus spray; for appearance of the roots compared with IBA alone: 6000 ppm IBA with 100 μM compound, submersion and spraying
Procedure: Eight-year-old Eucalyptus grandis plants were grown from seeds and placed in a net house in 20 liter pots containing peat and tuff (70:30, v/v), drip irrigated and fertilized with 3 liters of Shefer™ 737 liquid fertilizer (ICL Fertilizers, Israel) per cubic meter of water. Cuttings were collected from branches which grew 2-2.5 meters above the ground. Cuttings were 2-3 mm thick branches, 15 cm long, with 1-2 pairs of leaves. The leaf blades were cut in half to decrease transpiration. Cuttings were treated with 6000 ppm IBA (potassium indole-3-butyric acid) for 1 minute with or without 100 μM of each tested compound. The tested compounds were either applied to the base of the cutting, with or without IBA and/or sprayed on the foliage in the presence of 0.05% Triton™ X-100 surfactant. Cuttings were rooted in rooting tables heated to 25° C. under constant 90% humidity, in a controlled-climate greenhouse. The rooting medium contained crushed polystyrene foam: vermiculite no. 3: pit (3:2:1, v/v/v). Rooting was recorded after 30-60 days. Roots system architecture was analyzed by WinRHIZO™ system scanner and software.
Exemplary conjugates prepared as described in Example 1 were tested for their ability to promote adventitious root (AR) formation in cuttings from mature eucalyptus (Eucalyptus grandis) trees. In this model, AR formation is difficult to induce, with 5-15% root development in the presence of IBA potassium salt [Abu-Abied et al., Plant J 2012, 71:787-799], such that effective AR formation indicates a potent root formation activity.
Various concentrations and mode of applications were tested for each compound in the presence or absence of IBA (the “gold standard” rooting enhancer). A concentration of 100 μM of each conjugate was used for an initial screen of 37 conjugates, in which the compounds were applied to the base of the cutting by dipping (submerging the cutting base in a solution of the conjugate for one minute) or to the foliage by spraying. After 45 days, the cuttings were scored for the presence of callus or roots.
Conjugates prepared as described herein were evaluated in a Eucalyptus grandis rooting model, according to procedures such as described hereinabove. The bases of cuttings (a 12-15 cm long branch with the two upper leaves, whose blades were cut in half) were dipped in a solution containing 6000 ppm IBA potassium salt and 50 μM of conjugate for 1 minute, and the leaves were sprayed with 50 μM of the same conjugate (mixed with 0.5% Triton™ X-100 surfactant). The cuttings were imbedded in a heated (25° C.) rooting table containing a 1:2:3 ratio of peat:vermiculite:polystyrene, under 90% relative humidity.

Arabidopsis seedlings [4] = experiment: adventitious root formation in intact etiolated Arabidopsis seedlings; conditions: for adventitious roots formed on average: intact etiolated seedlings, 50 nM, FIG. 17 legend 10 μM for one hour
Procedure: (§2) Adventitious roots (ARs) were induced in intact plants, using previously described procedures [Gutierrez et al., Plant Cell 2009, 21:3119-3132; Abu-Abied et al., Plant J 2012, 71:787-799; Rasmussen et al., Plant Physiol 2012, 158:1976-1987]. Briefly, seeds were germinated on MS/0.8% agar plates supplemented with 3% sucrose. The plates were kept in the dark for 2 days at 4° C., then 5 days at 22° C. in the dark, 2 days in the light, 3 days in the dark and then additional 4 days in the light to complete 2 weeks when roots were counted using a stereoscope. Sensitivity to auxin and/or auxin analogs was determined by following root elongation on vertical plates. The 4-day-old seedlings were transferred to MS plates containing 0.05 or 0.5 μM IAA and the root length was measured after 5 days, including the number of LRs in each root and calculation of the LR density. Each treatment experiment included 10-15 plants and was repeated 3 times.
In a third assay utilizing an Arabidopsis model, induction of adventitious root AR formation in intact plants was examined in the presence of 50 nM of tested compounds, which included 5 days incubation in the dark, followed by a shift to the light, according to procedures described by Sorin et al. [Plant Cell 2005, 17:1343-1359].
Conjugates prepared as described herein were evaluated in an Arabidopsis rooting model, according to procedures such as described hereinabove. Seeds were germinated and kept in the dark for 4 days. The etiolated seedlings were then incubated for 1 hour in 10 μM of each compound and then transferred to vertical MS medium-containing plates.

[5] = test system: Pinus halepensis cuttings; experiment: rooting and root development in pine cuttings; conditions: 400 ppm IBA potassium salt + 5 ppm conjugate, 4 hours dip; 12 weeks
Procedure: The effects of exemplary D-amino acid conjugates of 4-CPA (Compounds to and Is) on rooting in Pinus halepensis cuttings were compared with those of 2-DP-glycine methyl ester conjugate (2-DP-Gly). Rooting mature pine cuttings (i.e., cuttings that are taken from trees more than 4 years old) is very difficult.
Apical cuttings were taken from 7-year-old trees, stored for 4 weeks at 4° C., and treated by dipping the cutting bases for 4 hours in the following solution: 400 ppm IBA potassium salt+5 ppm tested conjugate+0.1% Amistar™ fungicide (250 grams/liter azoxystrobin). The cuttings were evaluated after 12 weeks.

Arabidopsis seedlings [6] = experiment: root elongation inhibition in Arabidopsis seedlings; conditions: 50 nM; for effect on root elongation relative to control, in words: after 5 days
Procedure: as §2
A common technique for evaluating auxin activity is by determining the ability of a compound to inhibit root elongation [Zolman et al., Genetics 2000, 156:1323-1337]. In order to use this assay for comparing auxin activities of different conjugates, the minimum concentration of free 4-CPA that is active in the root elongation inhibition assay was determined. Four days old seedlings were placed in vertical plates containing increasing concentrations of 4-CPA. The root lengths were marked daily during 5 days.
Based on the above results, the effect of conjugates of 4-CPA (Compounds 1o-1t) on root elongation after 5 days was determined at concentrations of 50 nM.

DR5:venus marker = experiment: auxin activity by DR5:venus fluorescence in Arabidopsis plants; conditions: 10 μM
Procedure: Imaging was performed using an SP8 Leica confocal microscope including solid-state lasers producing 405, 488, 514 and 552 nm light, and hybrid or PMT detectors. Objectives were either PL APO 20×/0.75, WD 0.62 mm or PL APO 63×/1.2 WD 0.3 mm. For fluorescence measurements, the Imaris™ spot detection option (Bitplane A.G.) was used to segment nuclei and calculate the average signal intensity.
One technique for assessing auxin activity of the 4-CPA amino acid conjugates utilized plants expressing nucleus-localized, fluorescent DR5:venus marker, the expression level of which is an indicator of intracellular auxin activity [Laskowski et al., PLoS Biol 2008, 6:e307]. Four days old seedlings grown on regular MS medium were transferred to plates containing 10 μM of the tested compounds and fluorescence was inspected by confocal microscope after 24 hours.
In order to assess the ability of the abovementioned sodium salts to penetrate the cells and activate an auxin response, an Arabidopsis DR5-Venus model was utilized (as described hereinabove). The plants were exposed to 10 μM of each compound for 24 hour; MS medium was used as a negative control, and the related Compounds 1p, 1r and 1t were used as positive controls.

mung bean cuttings = experiment: rooting of mung bean cuttings (number of adventitious roots per cutting); conditions: tested at 2, 10 or 50 μM
Procedure: Mung bean cuttings have been used for many years as a model for assessing the effect of plant hormones and synthetic chemicals on the rooting process. In the present study, this system was used to ascertain activity of conjugates in inducing adventitious root (AR) formation, and to evaluate the rate of conjugate hydrolysis that releases the free active auxin. […] The rooting activity in this system is determined by the number of adventitious roots per cutting.
The mung bean model was used to examine the activity of conjugates of three phenoxy acids, 4-CPA, MCPA, and 2-DP, on rooting. For comparison, plants were treated with (unconjugated) IBA or with 2-DP conjugated to glycine methyl ester (Gly-ME).

[7] = test system: cuttings from mature Eucalyptus grandis trees; experiment: rooting of cuttings from mature Eucalyptus grandis trees; conditions: 100 μM compound by submerging or spraying, with 6000 ppm IBA
Arabidopsis seedlings [8] = experiment: split petri dish assay, separate shoot or root application in etiolated Arabidopsis seedlings; conditions: 10 μM
From the text: The observation that AR enhancement in Eucalyptus cuttings was higher when 4-CPA conjugates were applied also to the leaves (as described in Example 3) prompted further investigation into the functions of shoot-derived 4-CPA. To this end, 4-CPA or Compounds 1p and it were applied specifically to roots or shoots of five-day old etiolated Arabidopsis seedlings using a split petri dish (as depicted in FIG. 26) and the effect on root elongation, lateral root (LR) formation and adventitious root (AR) formation was evaluated.
Arabidopsis plants were germinated and grown in the dark for 5 days, then then transferred to petri dishes with a partition in the middle. Each half of these plates contained either medium alone or with 10 μM of 4-CPA or Compound 1p or 1tl. The etiolated seedlings were put on the plates with their collet region on the partition such that either the hypocotyl and cotyledons, or the root or both were in touch with the medium containing the tested compound. Adventitious roots and lateral roots were counted and the length of the primary root was measured after a week.

## CC[C@H](C)[C@H](NC(=O)COc1ccc(Cl)cc1)C(=O)OC [4-CPA-L-Ile-methyl ester]
[1]
  number of roots per cutting in argan clone YM3 compared to IBA control, in words: considerably increased the number of roots per cutting
[2]
  root architecture / root length of VC801 avocado cuttings compared to IBA control, in words: more roots per cutting and considerably longer roots
[2]; conjugate, or IBA control
  rooting of VC801 avocado cuttings: 60%
[3]
  root number compared to IBA control, in words: promoted an increase in root number
[3]; Example 12 repeat: 6000 ppm IBA with 50 μM conjugate, or IBA control
  rooting of cuttings, repeated experiment in a different season: 50%

## COC(=O)[C@H](CC(C)C)NC(=O)COc1ccc(Cl)cc1 [4-CPA-L-Leu-methyl ester]
[1]
  number of roots per cutting in argan clone YM3 compared to IBA control, in words: considerably increased the number of roots per cutting
[2]
  root architecture / root length of VC801 avocado cuttings compared to IBA control, in words: considerably increased root length
Arabidopsis seedlings [4]; Example 12: etiolated seedlings, 1 hour in 10 μM
  average number of adventitious roots: 10
[3]
  root number compared to IBA control, in words: promoted an increase in root number

## COC(=O)[C@H](NC(=O)COc1ccc(Cl)cc1)C(C)C [Compound 1o]
[5]
  Degree of root development Medium (%): 14.3%
  Degree of root development Weak (%): 7.2%
  Degree of root development Well-developed (%): 71.4* %
  Rooting rate (%): 100%
Arabidopsis seedlings [6]
  effect on root elongation relative to control, in words: did not affect root elongation
Arabidopsis seedlings [4]
  adventitious roots formed on average: 0.5±0.3
[3]
  appearance of the roots compared with IBA alone: appeared more branched
DR5:venus marker
  DR5 fluorescence (auxin activity), in words: significantly lower fluorescence
Mung bean cuttings
  effect on AR formation in mung bean cuttings, in words: induced rooting to a degree positively correlated with concentration

## COC(=O)[C@@H](NC(=O)COc1ccc(Cl)cc1)C(C)C [Compound 1p, 4-CPA-L-Val]
Arabidopsis seedlings [6]
  effect on root elongation relative to control, in words: inhibited root elongation relative to control
Arabidopsis seedlings [6]; slight inhibition until day 3, complete from day 4
  time course of root elongation inhibition: biphasic behavior
[7]
  rooting in combination with IBA compared with IBA alone, in words: at least as potent as that of their corresponding D-amino acid conjugates
Arabidopsis seedlings [4]
  adventitious roots formed on average: 7±1.4
[3]; 6000 ppm IBA and 100 μM conjugate by submersion of base plus spraying of foliage
  percentage of adventitious root formation (rooting): 51±8%
[3]
  appearance of the roots compared with IBA alone: appeared more branched
Arabidopsis seedlings [8]; 24 hours on split dish
  effect on root growth of application to the shoot compared with application directly to the root: even stronger
Arabidopsis seedlings [8]; split dish
  adventitious root formation, exposure of shoots compared to exposure of roots: significantly more adventitious root formation
  lateral root formation, shoot application compared with root application: inhibited lateral root formation more efficiently than application to roots
DR5:venus marker
  effect on root tip and root elongation zone: loss of auxin activity at the root tip, and swelling of the root elongation zone
Mung bean cuttings
  effect on AR formation in mung bean cuttings, in words: induced rooting only at low concentrations
